We go through four compounds from US20250101052A1, “COMPOUND FOR EGFR KINASE INHIBITOR, COMPOSITION, AND USE THEREOF” (INNOVATION INSTITUTE FOR ARTIFICIAL INTELLIGENCE IN …, priority 2021, published 2025).

Where two headings read alike, the source gives them in different places.

Experiment [1] concerns the target EGFR^L858R/T790M/C797S kinase (Homo sapiens (Human), UniProt P00533, C797S/L858R/T790M). Description: EGFR^L858R/T790M/C797S kinase inhibitory activity experiment. Format: biochemical. To be noted: in vitro. In a few lines:
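Human EGFR L858R/T790M/C797S mutant preincubated 10 min with compound (10-point dilution from 1 μM), then reacted 60 min at room temperature with ATP and kinase substrate 22. Substrate conversion read by Caliper mobility shift. % inhibition normalized to no-enzyme and no-compound wells, with IC50 from variable-slope log(inhibitor) fit.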

For experiment [2], the system named is BaF3-EGFR^L858R/T790M/C797S cells. The experiment is described as follows: BaF3 cell proliferation inhibition experiment (CCK-8). The class given is cell-based. The note with it: Ba/F3 EGFR-L858R, 72 hours. An excerpt:
BaF3 cell proliferation inhibition experiment: The compounds of the present invention have excellent inhibitory activity against the proliferation of BaF3-EGFR^L858R/T790M/C797S cells
(§1) A. Cell line: BaF3 cells with stable overexpression of wild-type genes are named BaF3-EGFR^WT, and BaF3 cells with stable overexpression of EGFR^L858R/T790M/C797S EGFR^del19/T790M/C797S EGFR^L858R/C797S and EGFR^del19/C797S mutant genes are named BaF3-EGFR^L858R/T790M/C797S BaF3-EGFR^del19/T790M/C797S BaF3-EGFR^L858R/C797S and BaF3-EGFR^del19/C797S cells, respectively. Mediums:
(§2) a) The medium was preheated in a 37° C. water bath.
(§3) b) The cryopreservation tube was taken from the liquid nitrogen tank, quickly placed in a 37° C. water bath, and melted completely within 1 minute.
(§4) c) The cell suspension was transferred to a 15 mL centrifuge tube containing a 10 mL medium and centrifuged at 1000 rpm for 4 minutes.
(§5) d) The supernatant was discarded, the cells were resuspended in a 1 mL medium and transferred to a […] culture dish containing a 10 mL medium, 20% serum and 50 ng/mL EGF were administered to the first-generation medium, and culture was conducted in a 37° C. and 5% CO2 incubator.
(§6) b) The cells in the culture dish were blown evenly with a 5 mL pipette, and 500 μL of the cells were pipetted out to be inoculated into a new […] culture dish and cultured in a 37° C. and 5% CO2 incubator.
(§7) a) The compound to be tested (10 mM stock solution) was diluted with 100% DMSO to 1 mM, and diluted with a culture solution in a 24-well plate to prepare of a working solution of 2 μM concentration.
(§8) b) The 2 μM working solution was diluted with a triple dilution method to obtain working solutions with approximate concentrations of 2 μM, 600 nM, 200 nM, 60 nM, and 20 nM.
(§9) a) The cells at the logarithmic growth phase were centrifuged at 1000 rpm for 4 minutes, resuspended with a medium (containing 10% serum and 50 ng/mL EGF), and counted.
(§10) b) The cells were inoculated into a 96-well plate with a cell density of 4000 cells/well, and placed in a 37° C. and 5% CO2 incubator for culture for 12 hours.
(§11) a) The prepared compound was added to a 96-well plate, with 100 μL per well. The final concentrations were 1 μM, 300 nM, 100 nM, 30 nM, 10 nM, and 0 nM, and the final concentration of DMSO was 0.2%. A medium served as a blank control.
(§12) b) The cells were placed in 37° C. and 5% CO2 incubator for culture for 72 hours.
(§13) (5) Cell Viability Testing
(§14) a) The 96-well cell culture plate was taken out, and 20 μL of a CCK-8 reagent (Cell Counting Kit-8, Topscience, Catalog No. C0005) was added in the dark.
(§15) b) Mixing well was conducted on a horizontal shaking table at a room temperature at 100 rpm for 5 minutes.
(§16) c) The culture plate was placed in a 37° C. constant-temperature incubator for incubation.
d) Starting from the addition of the CCK-8, the absorbance at 450 nm was read using the TECAN microplate reader at 1 hour, 2 hours, and 3 hours, respectively.
(§17) The data was analyzed using GraphPad Prism 8.0 software to obtain a fitted curve of activity of the compounds. The IC50 of the compounds was fitted from nonlinear regression equation.

The subject of a further experiment is A431 cells. Description: A431 cell proliferation inhibition (SRB). The class given is cell-based. The note with it: Homo sapiens, A-431, wild-type EGFR, 72 hours. On the procedure:
A431 cell proliferation inhibition: The compounds of the present invention have good selectivity to wild-type EGFR
as §2, §3, §4, §5, §6, §7, §8, §9, §10, §11, §12, §13
a) The cell supernatant was discarded, rinsed once with 1×PBS, and fixed with 10% trichloroacetic acid for 1 hour. The trichloroacetic acid was discarded, excess trichloroacetic acid was washed off with tap water, and the 96-well plate was dried in a 60° C. oven.
b) 70 μL of an SRB stain was added to each well of the dry 96-well plate for staining at a room temperature for 30 minutes. Excess SRB stain was washed off with 1% glacial acetic acid, and the 96-well plate was dried in a 60° C. oven.
c) SRB was dissolved with 100 μL of 10 mM Tris-base solution. The absorbance was detected at 540 nm ultraviolet absorption using the microplate reader. The data was analyzed.
as §17

Another experiment relates to BaF3-EGFR^WT cells. The experiment is described as follows: BaF3 cell proliferation inhibition experiment (CCK-8). Format: cell-based. To be noted: Mus musculus, read-out: BaF3-EGFR^WT (IC50 nM). On the procedure:
as §1, §2, §3, §4, §5, §6, §7, §8, §9, §10, §11, §12, §13, §14, §15, §16, §17

The subject of experiment [3] is BaF3-EGFR^del19/T790M/C797S cells. Described as above. The class given is cell-based. To be noted: Ba/F3 EGFR-Del19/T790M/C797S, read-out: BaF3-EGFR^del19 /T790M/C797S (IC50 nM). On the procedure:
as §1, §2, §3, §4, §5, §6, §7, §8, §9, §10, §11, §12, §13, §14, §15, §16, §17

The test system of experiment [4] is BaF3-EGFR^L858R/C797S cells. The description is as above. Format: cell-based. To be noted: Ba/F3 EGFR-L858R, read-out: BaF3-EGFR^L858R/C797S (IC50 nM). The method, then: as §1, §2, §3, §4, §5, §6, §7, §8, §9, §10, §11, §12, §13, §14, §15, §16, §17
Experiment [5] relates to BaF3-EGFR^del19/C797S cells. The experiment is described as above. Format: cell-based. To be noted: Mus musculus, read-out: BaF3-EGFR^del19 /C797S (IC50 nM). On the procedure:
as §1, §2, §3, §4, §5, §6, §7, §8, §9, §10, §11, §12, §13, §14, §15, §16, §17

The mark [6] stands for this setting: BaF3, cell proliferation, 72 hours.

Chain of EGFR^L858R/T790M/C797S kinase (P00533 25-1210 T790M/C797S/L858R): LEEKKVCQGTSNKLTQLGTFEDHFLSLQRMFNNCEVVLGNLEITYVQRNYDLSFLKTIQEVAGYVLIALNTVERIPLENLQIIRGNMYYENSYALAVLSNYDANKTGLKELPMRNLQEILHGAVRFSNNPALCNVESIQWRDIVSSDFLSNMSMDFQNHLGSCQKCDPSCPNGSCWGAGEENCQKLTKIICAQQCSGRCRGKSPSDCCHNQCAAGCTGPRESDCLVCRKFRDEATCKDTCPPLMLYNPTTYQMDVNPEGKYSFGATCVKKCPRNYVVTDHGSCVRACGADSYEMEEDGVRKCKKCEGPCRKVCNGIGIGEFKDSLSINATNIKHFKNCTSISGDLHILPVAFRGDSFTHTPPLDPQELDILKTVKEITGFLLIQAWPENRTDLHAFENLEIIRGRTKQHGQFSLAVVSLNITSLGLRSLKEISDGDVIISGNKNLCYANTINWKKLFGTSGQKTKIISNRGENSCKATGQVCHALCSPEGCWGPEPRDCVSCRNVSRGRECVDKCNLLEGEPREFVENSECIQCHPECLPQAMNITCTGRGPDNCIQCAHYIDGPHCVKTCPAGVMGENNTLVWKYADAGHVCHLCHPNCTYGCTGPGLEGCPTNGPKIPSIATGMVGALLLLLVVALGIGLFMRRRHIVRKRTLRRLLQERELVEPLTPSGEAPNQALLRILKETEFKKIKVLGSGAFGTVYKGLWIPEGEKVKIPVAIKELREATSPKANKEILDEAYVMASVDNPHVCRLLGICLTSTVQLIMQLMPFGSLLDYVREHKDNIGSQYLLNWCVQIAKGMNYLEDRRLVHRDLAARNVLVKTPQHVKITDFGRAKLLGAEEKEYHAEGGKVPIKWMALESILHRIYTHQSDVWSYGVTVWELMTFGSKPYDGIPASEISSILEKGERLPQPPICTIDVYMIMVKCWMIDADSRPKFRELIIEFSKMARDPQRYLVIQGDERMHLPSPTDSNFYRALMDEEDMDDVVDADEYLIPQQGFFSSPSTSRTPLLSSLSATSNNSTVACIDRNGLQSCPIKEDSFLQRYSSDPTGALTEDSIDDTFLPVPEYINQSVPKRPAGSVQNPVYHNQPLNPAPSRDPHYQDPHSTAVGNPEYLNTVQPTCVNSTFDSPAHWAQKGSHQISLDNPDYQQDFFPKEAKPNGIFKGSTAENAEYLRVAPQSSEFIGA

For the compound `CCc1cc(Nc2ncc(Cl)c(Nc3ccc(C)c(C)c3P(C)(C)=O)n2)c(OC)cc1N1CCC(N2C[C@H]3CN(C)C[C@H]3C2)CC1` [Compound 52, (6-((5-Chloro-2-((5-ethyl-2-methoxy-4-(4-((3aR,6aS)-5-methyloctahydropyrrol[3,4-C]pyrrol-2(1H)-yl)piperidin-1-yl)phenyl)amino)pyrimidin-4-yl)amino)-2,3-dimethylphenyl)dimethylphosphine oxide], the IC50 in experiment [1] worked out at 0.0369 nM; in experiment [2], 236 nM; with A431 cells it was 606 nM; in the experiment with BaF3-EGFR^WT cells (setting [6]), 353 nM; in experiment [3] (cell proliferation, 72 hours), 92.8 nM.

For `CCc1cc(Nc2ncc(Cl)c(Nc3cc(C)c(C)cc3P(C)(C)=O)n2)c(OC)cc1N1CCC(N2C[C@@H](C)N(C)[C@@H](C)C2)CC1` [Compound 50, (2-((5-chloro-2-((5-ethyl-2-methoxy-4-(4-((3S,5R)-3,4,5-trimethylpiperazin-1-yl)piperidin-1-yl)phenyl)amino)pyrimidin-4-yl)amino)-4,5-dimethylphenyl)dimethylphosphine oxide], the IC50 in experiment [1] came out at 0.0707 nM; in the experiment with BaF3-EGFR^WT cells (setting [6]) it was 942 nM; in experiment [3] (cell proliferation, 72 hours), 186 nM.

As for `CCc1cc(Nc2ncc(Cl)c(Nc3ccc(C)c(C)c3P(C)(C)=O)n2)c(OC)cc1N1CCC(N2CC3CC2CN3C)CC1` (stereo not drawn) [Compound 54, (6-((5-Chloro-2-((5-ethyl-2-methoxy-4-(4-(5-methyl-2,5-diazadicyclo[2.2.1]heptane-2-yl)piperidin-1-yl)phenyl)amino)pyrimidin-4-yl)amino)-2,3-dimethylphenyl)dimethylphosphine oxide], the IC50 in experiment [1] is 0.201 nM; in experiment [4] (cell proliferation, 72 hours), 166 nM; in experiment [5] (setting [6]) it was 193 nM.

For `C=CC(=O)Nc1cc(Nc2nccc(-c3cn(C)c4ccccc34)n2)c(OC)cc1N(C)CCN(C)C` [AZD9291, reference compound], the IC50 was > 1000 nM in experiment [4] (72 h); 76.1 nM in the experiment with BaF3-EGFR^WT cells (BaF3, 72 h); > 1000 nM in experiment [5] (BaF3, 72 h); 614 nM in experiment [3] (72 h).
